Test results as given in paper PMC3050527 (Bioorganic & medicinal chemistry, 2010).
Entries after “also recorded” stand apart in the source; their conditions may differ.

What was measured:
Assay type in all cases: biochemical
cPLA2 = biological target: T1, cPLA2 (Homo sapiens, UniProt P47712); experiment: inhibition of cPLA2; settings: at 1µµ
T1 sequence (P47712 1-749): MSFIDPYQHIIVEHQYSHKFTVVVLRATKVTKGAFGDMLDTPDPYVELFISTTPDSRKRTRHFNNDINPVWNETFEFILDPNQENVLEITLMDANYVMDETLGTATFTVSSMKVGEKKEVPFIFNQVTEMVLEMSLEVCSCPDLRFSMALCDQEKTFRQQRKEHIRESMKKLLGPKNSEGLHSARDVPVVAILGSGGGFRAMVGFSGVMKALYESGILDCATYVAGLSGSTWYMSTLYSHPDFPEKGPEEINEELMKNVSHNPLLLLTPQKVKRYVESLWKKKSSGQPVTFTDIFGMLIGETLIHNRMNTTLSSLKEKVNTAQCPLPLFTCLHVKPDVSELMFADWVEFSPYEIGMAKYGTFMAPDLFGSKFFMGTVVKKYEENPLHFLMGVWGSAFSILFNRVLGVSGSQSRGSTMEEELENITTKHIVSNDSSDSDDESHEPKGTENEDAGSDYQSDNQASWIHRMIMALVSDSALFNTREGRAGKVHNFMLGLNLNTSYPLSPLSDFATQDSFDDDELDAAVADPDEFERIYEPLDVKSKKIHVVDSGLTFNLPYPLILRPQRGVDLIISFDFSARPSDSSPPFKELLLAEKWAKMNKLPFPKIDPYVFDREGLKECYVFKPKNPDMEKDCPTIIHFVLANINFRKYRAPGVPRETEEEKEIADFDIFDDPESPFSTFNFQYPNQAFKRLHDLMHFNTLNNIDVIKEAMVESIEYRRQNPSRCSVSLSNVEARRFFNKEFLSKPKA

hGX sPLA2 = biological target: T2, hGX sPLA2 (Homo sapiens, UniProt O15496); experiment: continuous fluorimetric sPLA2 assay, human GX
T2 sequence (O15496 43-165): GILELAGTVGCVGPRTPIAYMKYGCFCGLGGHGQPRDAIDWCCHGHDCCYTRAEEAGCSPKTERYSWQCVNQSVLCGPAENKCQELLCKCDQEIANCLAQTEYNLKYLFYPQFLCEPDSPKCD

hGIIA sPLA2 = biological target: T3, hGIIA sPLA2 (Homo sapiens, UniProt P14555); experiment: continuous fluorimetric sPLA2 assay, human GIIA; settings: compared with GK126
T3 sequence (P14555 21-144): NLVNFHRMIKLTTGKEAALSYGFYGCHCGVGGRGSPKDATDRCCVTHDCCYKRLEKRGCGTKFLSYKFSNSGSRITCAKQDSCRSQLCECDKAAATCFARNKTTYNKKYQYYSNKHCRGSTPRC

Row | SMILES | inhibition against cPLA2 (cPLA2) [%] | inhibition of human GX sPLA2 (in words) (hGX sPLA2) | sPLA2 inhibitory activity (in words) (hGIIA sPLA2)
1 | CCCCCCCCCCCCCCC(=O)C(=O)N[C@@H](CC(C)C)C(=O)O [GK126, (S)-4-Methyl-2-(2-oxohexadecanamido)pentanoic acid] | ≤ 12 | did not show any inhibition; also recorded: did not display any measurable inhibition | 
2 | CCCCCCCCCCCCCCC(=O)C(=O)N[C@@H](Cc1ccccc1)C(=O)O [GK141, (S)-2-(2-Oxohexadecanamido)-3-phenylpropanoic acid] |  |  | inactive
3 | CCCCCCCCCCCCCCCC(=O)N[C@@H](CC(C)C)C(=O)O [GK144, (S)-4-Methyl-2-palmitamidopentanoic acid] |  |  | inactive
